What was measured:
HT-29 = assay: Antiproliferative activity against human HT-29 cells measured after 72 hrs by MTT assay; settings: HT-29, 72 h
[1] = molecular target: T1, Receptor-type tyrosine-protein kinase FLT3 (Homo sapiens, UniProt P36888); assay: Inhibition of human N-terminal GST-fused FLT3 cytoplasmic domain (564 to 993 residues) expressed in baculovirus expression system using Srctide as substrate measured after 1 hr by mobility shift assay
T1 sequence (P36888 whole entry): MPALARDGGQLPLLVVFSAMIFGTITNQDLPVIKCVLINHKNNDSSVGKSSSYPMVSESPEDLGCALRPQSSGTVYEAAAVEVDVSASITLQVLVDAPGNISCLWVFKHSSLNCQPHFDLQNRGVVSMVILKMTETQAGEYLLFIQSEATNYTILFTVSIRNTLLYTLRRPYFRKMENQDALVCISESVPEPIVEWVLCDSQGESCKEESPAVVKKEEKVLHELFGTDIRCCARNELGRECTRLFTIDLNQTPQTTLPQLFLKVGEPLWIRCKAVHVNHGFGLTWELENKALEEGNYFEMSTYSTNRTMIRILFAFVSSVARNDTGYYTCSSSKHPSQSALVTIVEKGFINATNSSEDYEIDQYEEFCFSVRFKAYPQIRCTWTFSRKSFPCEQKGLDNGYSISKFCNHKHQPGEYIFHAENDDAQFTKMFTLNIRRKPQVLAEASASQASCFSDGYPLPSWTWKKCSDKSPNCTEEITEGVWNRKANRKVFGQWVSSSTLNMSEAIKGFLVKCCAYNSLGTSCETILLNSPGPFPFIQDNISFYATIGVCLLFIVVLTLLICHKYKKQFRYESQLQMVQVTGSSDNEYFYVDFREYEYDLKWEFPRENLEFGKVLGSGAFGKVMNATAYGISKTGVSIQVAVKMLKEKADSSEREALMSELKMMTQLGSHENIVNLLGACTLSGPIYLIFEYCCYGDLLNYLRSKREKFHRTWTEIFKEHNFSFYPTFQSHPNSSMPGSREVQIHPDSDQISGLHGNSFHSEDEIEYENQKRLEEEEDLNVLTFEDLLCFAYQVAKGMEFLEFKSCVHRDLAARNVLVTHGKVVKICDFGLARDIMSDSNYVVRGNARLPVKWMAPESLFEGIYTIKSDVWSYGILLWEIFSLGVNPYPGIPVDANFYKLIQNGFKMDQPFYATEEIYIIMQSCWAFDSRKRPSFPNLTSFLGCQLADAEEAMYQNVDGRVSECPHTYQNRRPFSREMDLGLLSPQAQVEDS

MCF7 = assay: Antiproliferative activity against human MCF7 cells measured after 72 hrs by MTT assay; format: functional, cell-based; settings: MCF7, 72 h
[2] = molecular target: Vascular endothelial growth factor receptor 2 (Homo sapiens, UniProt P35968); assay: Inhibition of human N-terminal GST-fused KDR cytoplasmic domain (790 to 1356 residues) expressed in baculovirus expression system using CSKtide as substrate measured after 1 hr by mobility shift assay
Sequence of Vascular endothelial growth factor receptor 2 (P35968 whole entry, the tested form may be a part): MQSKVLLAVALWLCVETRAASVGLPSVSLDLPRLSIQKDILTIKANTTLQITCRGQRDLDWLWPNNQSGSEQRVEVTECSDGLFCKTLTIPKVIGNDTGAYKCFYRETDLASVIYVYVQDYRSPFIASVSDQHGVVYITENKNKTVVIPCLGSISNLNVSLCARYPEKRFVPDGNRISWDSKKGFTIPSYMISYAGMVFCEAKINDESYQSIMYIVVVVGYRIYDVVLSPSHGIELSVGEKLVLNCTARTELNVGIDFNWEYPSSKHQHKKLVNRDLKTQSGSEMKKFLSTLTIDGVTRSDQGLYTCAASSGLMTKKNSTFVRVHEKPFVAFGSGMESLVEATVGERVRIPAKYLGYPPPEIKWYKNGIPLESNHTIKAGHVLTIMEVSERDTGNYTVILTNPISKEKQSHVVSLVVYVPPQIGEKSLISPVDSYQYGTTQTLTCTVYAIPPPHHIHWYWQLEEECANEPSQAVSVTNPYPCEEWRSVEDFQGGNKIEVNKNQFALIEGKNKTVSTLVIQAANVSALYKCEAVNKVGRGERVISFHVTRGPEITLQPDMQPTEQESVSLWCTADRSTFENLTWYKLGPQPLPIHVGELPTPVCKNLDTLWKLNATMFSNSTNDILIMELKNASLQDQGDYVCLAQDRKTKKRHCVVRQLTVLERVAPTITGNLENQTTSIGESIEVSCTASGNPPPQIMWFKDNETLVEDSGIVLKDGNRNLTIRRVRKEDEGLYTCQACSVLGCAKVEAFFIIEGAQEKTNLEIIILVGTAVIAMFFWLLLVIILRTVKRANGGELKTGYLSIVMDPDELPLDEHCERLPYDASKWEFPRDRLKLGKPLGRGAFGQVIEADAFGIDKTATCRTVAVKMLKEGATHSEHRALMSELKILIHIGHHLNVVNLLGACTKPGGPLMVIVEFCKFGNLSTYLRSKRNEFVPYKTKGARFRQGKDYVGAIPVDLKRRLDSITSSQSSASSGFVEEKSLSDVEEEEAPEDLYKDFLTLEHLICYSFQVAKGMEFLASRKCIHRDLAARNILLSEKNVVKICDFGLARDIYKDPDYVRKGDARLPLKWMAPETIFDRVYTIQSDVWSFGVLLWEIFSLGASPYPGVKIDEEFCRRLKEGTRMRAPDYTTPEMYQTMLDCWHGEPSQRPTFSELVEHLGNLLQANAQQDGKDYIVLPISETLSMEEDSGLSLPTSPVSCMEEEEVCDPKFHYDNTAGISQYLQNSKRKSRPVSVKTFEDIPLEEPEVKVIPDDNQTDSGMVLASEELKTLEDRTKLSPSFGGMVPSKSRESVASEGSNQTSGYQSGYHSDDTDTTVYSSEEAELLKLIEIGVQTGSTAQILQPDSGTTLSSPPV

[3] = molecular target: Hepatocyte growth factor receptor (Homo sapiens, UniProt P08581); assay: Inhibition of human N-terminal GST-fused c-MET cytoplasmic domain (956 to 1390 residues) expressed in baculovirus expression system using Srctide as substrate measured after 1 hr by mobility shift assay
PC-3 = assay: cells; settings: Homo sapiens, PC-3, 72 h
Description: Antiproliferative activity against human PC-3 cells measured after 72 hrs by MTT assay

[4] = molecular target: T2, Tyrosine-protein kinase Mer (Homo sapiens, UniProt Q12866); assay: Inhibition of MER (unknown origin)
T2 sequence (Q12866 whole entry): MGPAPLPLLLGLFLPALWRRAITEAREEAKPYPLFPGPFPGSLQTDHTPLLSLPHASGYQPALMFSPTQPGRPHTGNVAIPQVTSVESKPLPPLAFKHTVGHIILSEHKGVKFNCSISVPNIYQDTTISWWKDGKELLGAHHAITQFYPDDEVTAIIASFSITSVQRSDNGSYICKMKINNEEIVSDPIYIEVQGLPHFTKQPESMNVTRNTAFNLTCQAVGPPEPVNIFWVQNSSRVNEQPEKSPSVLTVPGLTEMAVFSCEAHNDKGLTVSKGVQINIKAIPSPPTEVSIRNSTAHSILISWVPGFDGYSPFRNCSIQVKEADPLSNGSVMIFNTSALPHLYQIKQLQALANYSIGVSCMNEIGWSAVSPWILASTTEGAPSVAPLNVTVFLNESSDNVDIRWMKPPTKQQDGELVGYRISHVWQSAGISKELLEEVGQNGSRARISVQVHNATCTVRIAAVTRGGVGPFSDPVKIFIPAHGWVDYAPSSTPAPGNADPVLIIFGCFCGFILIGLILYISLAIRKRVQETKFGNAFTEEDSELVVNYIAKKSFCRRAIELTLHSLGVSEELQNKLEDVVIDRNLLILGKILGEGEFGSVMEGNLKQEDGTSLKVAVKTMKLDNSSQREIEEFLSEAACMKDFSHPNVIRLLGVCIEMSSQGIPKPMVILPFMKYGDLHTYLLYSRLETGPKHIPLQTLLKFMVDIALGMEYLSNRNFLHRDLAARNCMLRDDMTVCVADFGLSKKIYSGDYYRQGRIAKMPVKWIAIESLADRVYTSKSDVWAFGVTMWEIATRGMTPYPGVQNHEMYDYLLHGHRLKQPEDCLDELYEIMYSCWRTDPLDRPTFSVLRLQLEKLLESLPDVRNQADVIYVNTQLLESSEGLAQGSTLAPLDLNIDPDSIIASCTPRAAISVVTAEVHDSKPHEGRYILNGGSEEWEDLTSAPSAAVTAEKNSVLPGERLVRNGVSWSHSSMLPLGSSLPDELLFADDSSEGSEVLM

A549 = assay: cells; settings: Homo sapiens, A549, 72 h
Description: Antiproliferative activity against human A549 cells measured after 72 hrs by MTT assay

[5] = molecular target: Platelet-derived growth factor receptor beta (Homo sapiens, UniProt P09619); assay: Inhibition of human His-tagged PDGFRB cytoplasmic domain expressed in baculovirus expression system using peptide substrate measured after 1 hr by mobility shift assay
Sequence of Platelet-derived growth factor receptor beta (P09619 whole entry, the tested form may be a part): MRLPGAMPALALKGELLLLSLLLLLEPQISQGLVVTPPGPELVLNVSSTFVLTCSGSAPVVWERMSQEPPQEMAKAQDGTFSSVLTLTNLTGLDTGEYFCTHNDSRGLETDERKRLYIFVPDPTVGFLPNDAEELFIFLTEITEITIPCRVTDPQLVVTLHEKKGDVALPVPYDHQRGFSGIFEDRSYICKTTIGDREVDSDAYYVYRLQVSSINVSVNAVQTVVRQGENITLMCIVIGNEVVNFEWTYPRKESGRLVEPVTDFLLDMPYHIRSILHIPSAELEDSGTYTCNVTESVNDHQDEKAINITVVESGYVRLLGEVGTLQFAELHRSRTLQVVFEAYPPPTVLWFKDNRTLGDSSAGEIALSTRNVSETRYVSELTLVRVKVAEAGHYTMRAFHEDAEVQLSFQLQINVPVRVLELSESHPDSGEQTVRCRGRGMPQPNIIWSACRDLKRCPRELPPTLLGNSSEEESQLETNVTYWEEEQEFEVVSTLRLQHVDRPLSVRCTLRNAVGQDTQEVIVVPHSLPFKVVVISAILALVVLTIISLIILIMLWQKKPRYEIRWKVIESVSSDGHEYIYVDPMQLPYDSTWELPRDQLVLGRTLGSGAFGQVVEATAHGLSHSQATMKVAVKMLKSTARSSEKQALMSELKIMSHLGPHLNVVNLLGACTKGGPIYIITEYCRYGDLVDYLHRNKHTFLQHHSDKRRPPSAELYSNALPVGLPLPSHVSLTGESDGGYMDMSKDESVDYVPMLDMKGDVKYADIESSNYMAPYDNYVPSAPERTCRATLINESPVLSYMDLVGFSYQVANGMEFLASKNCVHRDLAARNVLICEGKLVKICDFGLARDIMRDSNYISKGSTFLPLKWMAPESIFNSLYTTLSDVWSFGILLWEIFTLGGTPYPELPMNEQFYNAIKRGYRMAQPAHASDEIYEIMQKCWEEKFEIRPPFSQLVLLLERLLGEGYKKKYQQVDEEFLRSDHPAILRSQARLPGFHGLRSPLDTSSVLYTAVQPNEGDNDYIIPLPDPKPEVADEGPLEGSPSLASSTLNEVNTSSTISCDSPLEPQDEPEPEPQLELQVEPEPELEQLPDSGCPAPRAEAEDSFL

[6] = molecular target: Mast/stem cell growth factor receptor Kit (Homo sapiens, UniProt P10721); assay: Inhibition of human N-terminal GST-tagged c-Kit cytoplasmic domain (544 to end residues) expressed in baculovirus infected Sf21 insect cells using peptide substrate measured after 1 hr by mobility shift assay
Sequence of Mast/stem cell growth factor receptor Kit (P10721 whole entry, the tested form may be a part): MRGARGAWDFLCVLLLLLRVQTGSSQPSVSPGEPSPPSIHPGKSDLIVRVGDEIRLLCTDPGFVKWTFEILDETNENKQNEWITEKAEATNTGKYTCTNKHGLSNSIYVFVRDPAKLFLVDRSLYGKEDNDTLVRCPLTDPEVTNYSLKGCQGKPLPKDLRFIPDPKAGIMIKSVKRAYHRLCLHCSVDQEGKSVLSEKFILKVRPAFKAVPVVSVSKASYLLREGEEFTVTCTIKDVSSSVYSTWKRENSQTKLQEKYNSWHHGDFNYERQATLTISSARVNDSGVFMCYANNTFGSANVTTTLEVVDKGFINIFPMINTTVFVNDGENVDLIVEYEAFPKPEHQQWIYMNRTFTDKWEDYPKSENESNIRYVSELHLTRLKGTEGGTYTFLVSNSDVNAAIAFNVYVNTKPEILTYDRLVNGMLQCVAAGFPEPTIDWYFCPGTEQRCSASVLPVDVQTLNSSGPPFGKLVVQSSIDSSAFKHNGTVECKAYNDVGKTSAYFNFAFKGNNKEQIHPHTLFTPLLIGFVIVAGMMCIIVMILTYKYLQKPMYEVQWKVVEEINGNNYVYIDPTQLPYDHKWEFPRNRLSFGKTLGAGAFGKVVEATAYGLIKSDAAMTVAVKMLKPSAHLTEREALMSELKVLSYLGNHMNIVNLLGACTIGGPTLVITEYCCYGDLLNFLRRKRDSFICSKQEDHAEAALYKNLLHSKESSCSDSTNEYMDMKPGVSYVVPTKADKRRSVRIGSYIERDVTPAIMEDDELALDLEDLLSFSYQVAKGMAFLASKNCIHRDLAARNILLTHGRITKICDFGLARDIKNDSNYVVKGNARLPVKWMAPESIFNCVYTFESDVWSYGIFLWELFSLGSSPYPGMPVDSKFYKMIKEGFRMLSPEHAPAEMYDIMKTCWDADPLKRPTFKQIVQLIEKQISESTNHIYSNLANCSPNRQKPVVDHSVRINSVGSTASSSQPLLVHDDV

[7] = molecular target: Tyrosine-protein kinase receptor UFO (Homo sapiens) (UniProt P30530); settings: dose 100.0 nM, time 1.0 hrs
Sequence of Tyrosine-protein kinase receptor UFO (Homo sapiens) (P30530 whole entry): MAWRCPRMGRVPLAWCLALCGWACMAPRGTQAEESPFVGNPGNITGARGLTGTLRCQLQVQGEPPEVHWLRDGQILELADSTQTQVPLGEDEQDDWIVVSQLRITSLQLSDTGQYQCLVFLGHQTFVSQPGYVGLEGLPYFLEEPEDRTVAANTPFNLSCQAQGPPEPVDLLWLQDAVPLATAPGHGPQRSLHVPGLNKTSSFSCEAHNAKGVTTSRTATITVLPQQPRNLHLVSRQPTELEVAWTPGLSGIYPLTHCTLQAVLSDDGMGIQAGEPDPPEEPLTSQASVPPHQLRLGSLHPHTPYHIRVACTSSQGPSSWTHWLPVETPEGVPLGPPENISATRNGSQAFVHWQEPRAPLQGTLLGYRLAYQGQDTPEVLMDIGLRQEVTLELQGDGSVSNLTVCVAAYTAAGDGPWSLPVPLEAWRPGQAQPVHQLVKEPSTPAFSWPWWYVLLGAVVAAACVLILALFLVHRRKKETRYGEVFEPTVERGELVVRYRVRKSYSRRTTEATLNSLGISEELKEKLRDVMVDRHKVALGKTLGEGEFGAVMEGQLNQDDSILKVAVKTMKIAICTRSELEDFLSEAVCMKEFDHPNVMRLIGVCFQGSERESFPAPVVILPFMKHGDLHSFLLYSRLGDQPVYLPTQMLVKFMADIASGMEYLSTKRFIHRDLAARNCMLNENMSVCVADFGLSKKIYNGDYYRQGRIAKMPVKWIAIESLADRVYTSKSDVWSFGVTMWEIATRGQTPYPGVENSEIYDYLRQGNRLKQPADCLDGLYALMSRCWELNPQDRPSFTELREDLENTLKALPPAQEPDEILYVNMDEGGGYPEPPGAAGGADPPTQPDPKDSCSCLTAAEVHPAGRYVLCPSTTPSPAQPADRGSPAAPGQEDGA

IC50 (HT-29) | IC50 [1] | IC50 (MCF7) | IC50 [2] | IC50 [3] | IC50 (PC-3) | IC50 [4] | IC50 (A549) | IC50 [5] | IC50 [6] | inhibition [7] | Structure (SMILES)
1460 nM | > 200 nM | 1000 nM | 40 nM | 62 nM | 530 nM | > 200 nM | 32 nM | > 200 nM | 47 nM | – | COc1cc2c(Oc3ccc(NC(=O)C(C)c4nnc(-c5ccc(F)cc5)o4)cc3F)ccnc2cc1OCCCN1CCC(C)CC1 (stereo unspecified)
– | – | 2000 nM | – | – | 810 nM | – | 210 nM | – | – | 88% | COc1cc2c(Oc3ccc(NC(=O)C4(C(=O)Nc5ccc(F)cc5)CC4)cc3F)ccnc2cc1OCCCN1CCOCC1 [FORETINIB]
779 nM | – | 310 nM | – | – | 2340 nM | – | 150 nM | – | – | – | COc1cc2c(Oc3ccc(NC(=O)C4(c5nnc(-c6ccc(F)cc6)o5)CC4)cc3F)ccnc2cc1OCCCN1CCCC1
1270 nM | – | 2700 nM | – | – | 1080 nM | – | 76 nM | – | – | – | COc1cc2c(Oc3ccc(NC(=O)C(C)c4nnc(-c5ccc(F)cc5)o4)cc3F)ccnc2cc1OCCCN1CCCC1 (stereo unspecified)
1050 nM | – | 2610 nM | – | – | 1670 nM | – | 143 nM | – | – | – | COc1cc2c(Oc3ccc(NC(=O)C4(c5nnc(-c6ccc(F)cc6)o5)CC4)cc3F)ccnc2cc1OCCCN1CCN(C)CC1
